Laboratory results as given in patent publication US20070264349A1, “Nano-structured compositions and methods of making and using the same” (Novavax, Inc., priority 2006, published 2007).

Tests used:
[1] = Particle size measurement (Coulter particle sizer LS230); type: physicochemical; conditions: for particle size of a significant portion / almost all of the particles: formulations comprising ethanol (Tables 5 and 6), FIG. 10, FIG. 11; for mean size of nanoemulsion droplets comprising the active ingredient: after high-pressure homogenization, 10,000 psi (Examples 1, 2, 4); for mean particle size of raw active ingredient: before particle size reduction
Text: A Coulter particle sizer LS230 was used to measure particle size.

[2] = cited from earlier work
[3] = after high-pressure homogenization (Examples 1, 4, 7)
[4] = after high-pressure homogenization, 10,000 psi (Examples 5, 6, 7)

| particle size of a significant portion / almost all of the particles [1] | mean size of nanoemulsion droplets comprising the active ingredient [1] | mean particle size of raw active ingredient [1] | size below which 100% of the particles lie [1, 3] | milled mean particle size [1, 4] | Compound | solubility in water [2] | other results |
| --- | --- | --- | --- | --- | --- | --- | --- |
| less than 1 microns |  |  |  |  | [R—[R*,R*-(E)]]-cyclic(L-alanyl-D-alanyl-N-methyl-L-leucyl-N-methyl-L-leucyl-N-methyl-L-valyl-3-hydroxy-N, 4-dimethyl-L-2-amino-6-octenoyl-L-α-amino-butyryl-N-methylglycyl-N-methyl-L-leucyl-L-valyl-N-methyl-L-leucyl) [cyclosporine] |  |  |
|  | about 93 nm | about 542 microns |  |  | C[C@]12CC[C@@H]3c4ccc(O)cc4CC[C@H]3[C@@H]1CC[C@@H]2O [estradiol, estra-1,3,5(10)-triene-3,17β-diol] |  |  |
|  |  |  |  |  | CN1CCCC1c1cccnc1 (stereo not drawn) [Nicotine, S-3-(1-methyl-2-pyrrolidinyl) pyridine] | freely water-soluble |  |
| less than 0.1 microns | 132 nm | 54 μm | less than 3 microns | about 2 microns | Nc1nc2c(ncn2COCCO)c(=O)[nH]1 [acyclovir, 2-amino-1,9-dihydro-9-[(2-hydroxyethoxy)methyl]-6H-purin-6-one] | moderately soluble | size below which 100% of the particles lie ([1]; after particle size reduction (FIG. 2, FIG. 4)): less than 3 μm; particle size of a significant portion of the particles ([1]; formulation comprising N-methyl-pyrrolidinone (Table 4), FIG. 9, bimodal): less than 0.4 microns |
|  |  | 190-210 μm |  |  | NCCCC(O)(P(=O)(O)O)P(=O)(O)O [alendronic acid] |  | milled mean particle size ([1]; after high-pressure homogenization, 10,000 psi (Example 3)): about 0.2 μm |
|  |  | 15-30 μm | below 10 microns | 2.79 microns | O=C(c1ccc(OCCN2CCCCC2)cc1)c1c(-c2ccc(O)cc2)sc2cc(O)ccc12 [raloxifene] | very slightly soluble |  |
